# Source: ChEMBL document CHEMBL1141496, “Biphenylsulfonyl-thiophene-carboxamidine inhibitors of the complement component C1s” (Bioorg Med Chem Lett, 2008)
# Columns and labels:
# [1] = target: T1, Complement C1s subcomponent (Homo sapiens, UniProt P09871); assay: Inhibition of Complement C1s subcomponent
# T1 sequence (P09871 whole entry): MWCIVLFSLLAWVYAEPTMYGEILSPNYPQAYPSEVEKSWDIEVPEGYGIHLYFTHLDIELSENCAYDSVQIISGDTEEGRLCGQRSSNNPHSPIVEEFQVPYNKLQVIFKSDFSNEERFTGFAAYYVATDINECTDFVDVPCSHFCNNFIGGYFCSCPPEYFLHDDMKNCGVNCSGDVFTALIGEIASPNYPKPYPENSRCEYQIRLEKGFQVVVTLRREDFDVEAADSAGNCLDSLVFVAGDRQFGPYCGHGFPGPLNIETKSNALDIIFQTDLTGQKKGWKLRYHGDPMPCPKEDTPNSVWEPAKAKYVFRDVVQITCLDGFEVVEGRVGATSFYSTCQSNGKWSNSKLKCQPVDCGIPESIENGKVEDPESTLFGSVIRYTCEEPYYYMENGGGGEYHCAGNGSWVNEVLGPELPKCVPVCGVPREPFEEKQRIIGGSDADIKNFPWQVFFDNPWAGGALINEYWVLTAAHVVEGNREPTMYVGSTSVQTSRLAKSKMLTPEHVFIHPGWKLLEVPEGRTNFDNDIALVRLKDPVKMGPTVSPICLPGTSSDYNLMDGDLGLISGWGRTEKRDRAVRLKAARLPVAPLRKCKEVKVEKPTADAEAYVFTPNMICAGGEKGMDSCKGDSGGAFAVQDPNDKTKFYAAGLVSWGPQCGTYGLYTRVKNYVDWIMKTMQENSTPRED
# [2] = Aqueous solubility at physiological pH; format: physicochemical
# [3] = target: hERG (KCNH2) (Homo sapiens, UniProt Q12809); assay: Inhibition of human ERG at 10 uM by patch clamp assay
# [4] = Half life in rat at 2 mg/kg, iv; format: ADME, organism-based; parameters: dose 2 mg/kg, route intravenous; conditions: in vivo
# [5] = Volume of distribution in rat at 2 mg/kg, iv; format: ADME, organism-based; parameters: dose 2 mg/kg, route intravenous; conditions: in vivo
# [6] = Clearance in rat at 2 mg/kg, iv; format: ADME, organism-based; parameters: dose 2 mg/kg, route intravenous; conditions: in vivo
# Chain of hERG (KCNH2) (Q12809 whole entry): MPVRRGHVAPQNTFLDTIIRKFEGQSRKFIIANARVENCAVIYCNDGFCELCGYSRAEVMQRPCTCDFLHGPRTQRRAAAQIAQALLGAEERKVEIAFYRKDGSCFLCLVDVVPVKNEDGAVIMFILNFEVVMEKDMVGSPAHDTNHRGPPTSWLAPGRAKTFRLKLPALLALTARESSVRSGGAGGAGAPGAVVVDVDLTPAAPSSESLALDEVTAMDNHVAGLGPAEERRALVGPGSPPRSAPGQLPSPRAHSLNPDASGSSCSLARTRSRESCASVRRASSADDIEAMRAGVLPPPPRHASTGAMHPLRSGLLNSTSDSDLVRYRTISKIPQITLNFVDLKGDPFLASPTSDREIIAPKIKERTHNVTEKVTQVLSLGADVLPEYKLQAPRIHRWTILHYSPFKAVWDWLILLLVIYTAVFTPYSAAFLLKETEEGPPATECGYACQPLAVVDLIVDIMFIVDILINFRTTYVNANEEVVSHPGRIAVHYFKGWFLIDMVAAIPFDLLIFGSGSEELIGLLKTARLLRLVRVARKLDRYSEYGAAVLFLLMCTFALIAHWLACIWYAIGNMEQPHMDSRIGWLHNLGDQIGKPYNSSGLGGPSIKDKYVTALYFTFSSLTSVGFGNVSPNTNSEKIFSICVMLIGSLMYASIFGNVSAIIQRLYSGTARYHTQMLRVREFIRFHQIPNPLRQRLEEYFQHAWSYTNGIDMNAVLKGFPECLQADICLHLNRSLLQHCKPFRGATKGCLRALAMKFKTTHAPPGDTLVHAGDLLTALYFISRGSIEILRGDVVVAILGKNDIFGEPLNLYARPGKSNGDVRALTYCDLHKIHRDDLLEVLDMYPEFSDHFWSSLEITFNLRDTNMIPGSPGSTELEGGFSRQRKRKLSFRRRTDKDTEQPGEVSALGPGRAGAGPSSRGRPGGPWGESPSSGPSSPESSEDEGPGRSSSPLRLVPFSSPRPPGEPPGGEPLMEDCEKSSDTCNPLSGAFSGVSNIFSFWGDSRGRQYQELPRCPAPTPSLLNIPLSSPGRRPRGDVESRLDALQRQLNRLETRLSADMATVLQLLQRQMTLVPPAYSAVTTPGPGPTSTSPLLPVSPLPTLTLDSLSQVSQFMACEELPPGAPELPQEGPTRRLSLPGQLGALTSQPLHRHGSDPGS
Compound,Ki [1],other results
C=Cc1ccccc1-c1cccc(S(=O)(=O)c2cc(C(=N)N)sc2SC)c1,140 nM,
CSc1sc(C(=N)N)cc1S(=O)(=O)c1cccc(-c2c(C)cccc2CO)c1,50 nM,
COc1ccccc1-c1cccc(S(=O)(=O)c2cc(C(=N)N)sc2SC)c1,610 nM,
CSc1sc(C(=N)N)cc1S(=O)(=O)c1cccc(-c2ccccc2)c1,260 nM,
CSc1sc(C(=N)N)cc1S(=O)(=O)c1cccc(-c2c(C)cccc2C(=O)O)c1,150 nM,
COc1cccc(-c2cccc(S(=O)(=O)c3cc(C(=N)N)sc3SC)c2)c1,490 nM,
CSc1sc(C(=N)N)cc1S(=O)(=O)c1cccc(-c2ccccc2C)c1,30 nM,
CSc1sc(C(=N)N)cc1S(=O)(=O)c1cccc(-c2cccc(O)c2)c1,150 nM,
COc1ccc(-c2cccc(S(=O)(=O)c3cc(C(=N)N)sc3SC)c2)cc1,350 nM,
CSc1sc(C(=N)N)cc1S(=O)(=O)c1cccc(-c2cccc(C)n2)c1,40 nM,solubility [2]: 22 µM; inhibition at 10 µM [3]: 66%; half-life [4]: 2 h; Vd [5]: 15 L/kg; clearance [6]: 283 mL/min/kg
CSc1sc(C(=N)N)cc1S(=O)(=O)c1cccc(Br)c1,360 nM,
CSc1sc(C(=N)N)cc1S(=O)(=O)c1cccc(-c2c(C)cccc2NC(=O)NCCc2nn[nH]n2)c1,64 nM,inhibition at 10 µM [3]: 1%
CSc1sc(C(=N)N)cc1S(=O)(=O)c1cccc(-c2c(C)cccc2N)c1,20 nM,
CSc1sc(C(=N)N)cc1S(=O)(=O)c1cccc(-c2ccccc2CO)c1,120 nM,
CSc1sc(C(=N)N)cc1S(=O)(=O)c1cccc(-c2cccc(C)c2)c1,1850 nM,
CSc1sc(C(=N)N)cc1S(=O)(=O)c1cccc(-c2c(C)cccc2NC(=O)CCCCC(=O)O)c1,42 nM,solubility [2]: 40 µM
CSc1sc(C(=N)N)cc1S(=O)(=O)c1cccc(-c2ccccc2O)c1,460 nM,
CSc1sc(C(=N)N)cc1S(=O)(=O)c1cccc(-c2ccc(O)cc2)c1,190 nM,
CSc1sc(C(=N)N)cc1S(=O)(=O)c1cccc(-c2ccccc2Cl)c1,40 nM,
CSc1sc(C(=N)N)cc1S(=O)(=O)c1cccc(-c2c(C)cccc2NC(=O)NCCCCCC(=O)O)c1,22 nM,solubility [2]: 39 µM; inhibition at 10 µM [3]: 5.8%; half-life [4]: 0.2 h; Vd [5]: 2.65 L/kg; clearance [6]: 228 mL/min/kg
CSc1sc(C(=N)N)cc1S(=O)(=O)c1cccc(-c2c(C)cccc2NC(=O)CCCS(C)(=O)=O)c1,14 nM,solubility [2]: 35 µM; half-life [4]: 1.8 h; Vd [5]: 2.03 L/kg; clearance [6]: 130 mL/min/kg
CSc1sc(C(=N)N)cc1S(=O)(=O)c1cccc(-c2ccc(C)cc2)c1,250 nM,
CSc1sc(C(=N)N)cc1S(=O)(=O)c1cccc(-c2c(C)cccc2NC(=O)CS(C)(=O)=O)c1,120 nM,solubility [2]: 43 µM
